Patent US20210198277A1, “AMINE-SUBSTITUTED ARYL OR HETEROARYL COMPOUNDS” (Epizyme, Inc., priority 2016, published 2021)

Each molecule was assayed against T1, EHMT2 (Homo sapiens, UniProt Q96KQ7) (assay: MDA-MB-231 H3K9me2 in-cell Western assay (EHMT2 ICW)). Details: Table VII; read-out: EHMT2 ICW IC50.
T1 construct: host or cells: MDA-MB-231
T1 sequence (Q96KQ7 1-1210): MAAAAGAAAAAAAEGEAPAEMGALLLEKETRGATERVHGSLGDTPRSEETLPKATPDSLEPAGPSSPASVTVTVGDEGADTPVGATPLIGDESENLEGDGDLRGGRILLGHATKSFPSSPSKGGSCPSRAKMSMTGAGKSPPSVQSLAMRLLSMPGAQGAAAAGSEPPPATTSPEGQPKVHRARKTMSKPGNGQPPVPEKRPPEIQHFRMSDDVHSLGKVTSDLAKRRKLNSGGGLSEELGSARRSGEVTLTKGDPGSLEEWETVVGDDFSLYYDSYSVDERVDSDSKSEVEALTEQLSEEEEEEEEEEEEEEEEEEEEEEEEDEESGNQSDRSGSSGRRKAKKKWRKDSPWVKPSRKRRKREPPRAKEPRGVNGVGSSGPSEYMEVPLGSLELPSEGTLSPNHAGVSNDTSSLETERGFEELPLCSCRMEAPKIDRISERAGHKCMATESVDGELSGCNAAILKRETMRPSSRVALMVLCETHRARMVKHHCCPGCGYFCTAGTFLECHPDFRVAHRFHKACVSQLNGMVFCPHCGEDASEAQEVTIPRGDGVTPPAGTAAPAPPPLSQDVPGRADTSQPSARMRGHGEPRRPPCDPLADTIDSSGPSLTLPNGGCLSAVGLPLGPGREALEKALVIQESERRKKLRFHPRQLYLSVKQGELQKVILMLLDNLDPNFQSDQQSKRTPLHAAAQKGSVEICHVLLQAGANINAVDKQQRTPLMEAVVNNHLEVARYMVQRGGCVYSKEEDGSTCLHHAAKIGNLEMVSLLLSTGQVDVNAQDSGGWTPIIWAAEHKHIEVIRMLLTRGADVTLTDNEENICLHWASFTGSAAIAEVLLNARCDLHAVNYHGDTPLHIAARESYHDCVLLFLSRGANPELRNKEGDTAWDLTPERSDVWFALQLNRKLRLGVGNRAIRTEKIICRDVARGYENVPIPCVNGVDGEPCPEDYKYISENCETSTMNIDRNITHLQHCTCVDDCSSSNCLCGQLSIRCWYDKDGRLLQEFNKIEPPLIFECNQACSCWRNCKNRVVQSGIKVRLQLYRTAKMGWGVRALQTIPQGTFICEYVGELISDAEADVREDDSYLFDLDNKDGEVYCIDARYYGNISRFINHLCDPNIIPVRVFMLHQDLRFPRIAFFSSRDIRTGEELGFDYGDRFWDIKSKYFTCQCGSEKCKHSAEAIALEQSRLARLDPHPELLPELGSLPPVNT
Type: cell-based
Method in brief: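 IC50 values came from a variable-slope four-parameter fit on triplicate wells, using % inhibition from the 800/700 nm infrared signal ratio (anti-H3K9me2 versus DRAQ5 DNA stain). Before fixation and immunostaining, MDA-MB-231 cells, 3,000 per well, were exposed to compound for 48 h at 37 °C.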
Molecule `CNc1cc(C)nc(Nc2ccc(OC)c(CNCCN(C)C)c2)n1` [Compound 1101] has an IC50 of 0.1 to 1 µM.
`CNC[C@H](C)NCc1cc(Nc2nc(C)cc(NC)n2)ccc1OC` [Compound 1102] was tested, and the IC50 was 0.1 to 1 µM.
In the case of `CNC[C@@H](C)NCc1cc(Nc2nc(C)cc(NC)n2)ccc1OC` [Compound 1103], the IC50 is reported as 1 to 10 µM.
`CNc1cc(C)nc(Nc2ccc(OC)c(COCCN3CCCC3)c2)n1` [Compound 1104] gave an IC50 of 0.1 to 1 µM.
Molecule `CNc1cc(C)nc(Nc2ccc(OC)c(COCCN(C)C)c2)n1` [Compound 1105] has an IC50 of 1 to 10 µM.
`CCNc1cc(C)nc(Nc2ccc(OC)c(OC[C@H](O)CN3CCCC3)c2)n1` [Compound 1106] gave an IC50 of 0.1 to 1 µM.
In the case of `CNc1cc(C2CCOCC2)c2cc(OC)c(OC[C@H](O)CN3CCCC3)cc2n1` [Compound 1107], the IC50 is reported as 0.1 to 1 µM.
